Measurements published in PubChem BioAssay AID272 (DTP/NCI, 2004).
“And” between values parts separate entries of the source, which are not always exact repeats. Identical values can stand only once. Results filed as inconclusive are left out.

Test system: Lewis lung carcinoma i.m., BDF1 mice, T/C %
Assay: NCI In Vivo Anticancer Drug Screen. Data for tumor model Lewis Lung Carcinoma (intramuscular) in B6D2F1 (BDF1) mice
Outline: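 Value is the ratio of a treated-group measurement (T) to the matching vehicle-control measurement (C), using either survival or tumour size in mice bearing transplanted tumours.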

[1] = endpoint: median survival time, dose: 25.0 mg/kg/injection, schedule: Q01DX011 (ip), vehicle: saline, higher = longer survival
[2] = endpoint: median survival time, dose: 50.0 mg/kg/injection, schedule: Q01DX011 (ip), vehicle: saline, higher = longer survival
[3] = endpoint: median survival time, dose: 100.0 mg/kg/injection, schedule: Q01DX011 (ip), vehicle: saline, higher = longer survival
[4] = endpoint: median survival time, dose: 200.0 mg/kg/injection, schedule: Q01DX011 (ip), vehicle: saline, higher = longer survival
[5] = endpoint: mean tumor weight (est.), dose: 50.0 mg/kg/injection, schedule: Q01DX011 (ip), vehicle: saline with Tween-80, higher = larger tumour
[6] = endpoint: mean tumor weight (est.), dose: 100.0 mg/kg/injection, schedule: Q01DX011 (ip), vehicle: saline with Tween-80, higher = larger tumour
[7] = endpoint: mean tumor weight (est.), dose: 200.0 mg/kg/injection, schedule: Q01DX011 (ip), vehicle: saline with Tween-80, higher = larger tumour
[8] = endpoint: median survival time, dose: 50.0 mg/kg/injection, schedule: Q01DX011 (ip), vehicle: saline with Tween-80, higher = longer survival
[9] = endpoint: median survival time, dose: 100.0 mg/kg/injection, schedule: Q01DX011 (ip), vehicle: saline with Tween-80, higher = longer survival
[10] = endpoint: mean tumor weight (est.), dose: 25.0 mg/kg/injection, schedule: Q01DX011 (ip), vehicle: saline with Tween-80, higher = larger tumour
[11] = endpoint: median survival time, dose: 125.0 mg/kg/injection, schedule: Q01DX011 (ip), vehicle: saline, higher = longer survival

## N#CSCc1ccc(Cl)cc1Cl
endpoint: mean tumor weight, dose: 25.0 mg/kg/injection, schedule: Q01DX011 (ip), vehicle: saline, higher = larger tumour
  T/C: 75 % of control
endpoint: mean tumor weight, dose: 50.0 mg/kg/injection, schedule: Q01DX011 (ip), vehicle: saline, higher = larger tumour
  T/C: 56 % of control
endpoint: mean tumor weight, dose: 100.0 mg/kg/injection, schedule: Q01DX011 (ip), vehicle: saline, higher = larger tumour
  T/C: 25 % of control
endpoint: mean tumor weight, dose: 200.0 mg/kg/injection, schedule: Q01DX011 (ip), vehicle: saline, higher = larger tumour
  T/C: 47 % of control
[1]
  T/C: 86 % of control
[2]
  T/C: 95 % of control
[3]
  T/C: 119 % of control
[4]
  T/C: 106 % of control

## O=NN(CCCl)C(=O)NCC1CCC(CNC(=O)N(CCCl)N=O)CC1 (stereo unspecified)
endpoint: median survival time, dose: 65.0 mg/kg/injection, schedule: Q07DX003 (ip), vehicle: Klucel (hydroxypropylcellulose) (HPC), higher = longer survival
  T/C: 116 % of control
endpoint: median survival time, dose: 108.0 mg/kg/injection, schedule: Q07DX003 (ip), vehicle: Klucel (hydroxypropylcellulose) (HPC), higher = longer survival
  T/C: 106 % of control
endpoint: median survival time, dose: 180.0 mg/kg/injection, schedule: Q07DX003 (ip), vehicle: Klucel (hydroxypropylcellulose) (HPC), higher = longer survival
  T/C: 114 % of control
endpoint: median survival time, dose: 300.0 mg/kg/injection, schedule: Q07DX003 (ip), vehicle: Klucel (hydroxypropylcellulose) (HPC), higher = longer survival
  T/C: 106 % of control
endpoint: median survival time, dose: 500.0 mg/kg/injection, schedule: Q07DX003 (ip), vehicle: Klucel (hydroxypropylcellulose) (HPC), higher = longer survival
  T/C: 114 % of control

## CCOC(=O)N1c2ccccc2C=CC1C#N (stereo unspecified)
[5]
  T/C: 67 % of control
[6]
  T/C: 91 % of control
[7]
  T/C: 72 % of control
endpoint: mean tumor weight (est.), dose: 400.0 mg/kg/injection, schedule: Q01DX011 (ip), vehicle: saline with Tween-80, higher = larger tumour
  T/C: 59 % of control
[8]
  T/C: 94 % of control
[9]
  T/C: 90 % of control
endpoint: median survival time, dose: 200.0 mg/kg/injection, schedule: Q01DX011 (ip), vehicle: saline with Tween-80, higher = longer survival
  T/C: 96 % of control
endpoint: median survival time, dose: 400.0 mg/kg/injection, schedule: Q01DX011 (ip), vehicle: saline with Tween-80, higher = longer survival
  T/C: 88 % of control

## CCOC(N)=O
[1]
  T/C: 110 % of control
[3]
  T/C: 100 % of control
[4]
  T/C: 104 % of control
endpoint: median survival time, dose: 400.0 mg/kg/injection, schedule: Q01DX011 (ip), vehicle: saline, higher = longer survival
  T/C: 110 % of control

## O=C(O)CCCC1CCCCC1.[Cu+2]
endpoint: mean tumor weight (est.), dose: 6.25 mg/kg/injection, schedule: Q01DX011 (ip), vehicle: saline with Tween-80, higher = larger tumour
  T/C: 61 % of control

## C[N+](C)(C)c1cc2c(nn1)Nc1ccccc1S2
endpoint: mean tumor weight (est.), dose: 1.06 mg/kg/injection, schedule: Q01DX011 (ip), vehicle: saline, higher = larger tumour
  T/C: 83 % of control
endpoint: mean tumor weight (est.), dose: 2.12 mg/kg/injection, schedule: Q01DX011 (ip), vehicle: saline, higher = larger tumour
  T/C: 88 % of control
endpoint: mean tumor weight (est.), dose: 4.25 mg/kg/injection, schedule: Q01DX011 (ip), vehicle: saline, higher = larger tumour
  T/C: 69 % of control
endpoint: mean tumor weight (est.), dose: 8.5 mg/kg/injection, schedule: Q01DX011 (ip), vehicle: saline, higher = larger tumour
  T/C: 110 % of control
endpoint: median survival time, dose: 1.06 mg/kg/injection, schedule: Q01DX011 (ip), vehicle: saline, higher = longer survival
  T/C: 103 % of control
endpoint: median survival time, dose: 2.12 mg/kg/injection, schedule: Q01DX011 (ip), vehicle: saline, higher = longer survival
  T/C: 100 % of control
endpoint: median survival time, dose: 4.25 mg/kg/injection, schedule: Q01DX011 (ip), vehicle: saline, higher = longer survival
  T/C: 105 % of control
endpoint: median survival time, dose: 8.5 mg/kg/injection, schedule: Q01DX011 (ip), vehicle: saline, higher = longer survival
  T/C: 96 % of control

## O=C[C@@H](CO)O[C@H](C=O)n1cnc2c(=O)[nH]cnc21
endpoint: mean tumor weight, dose: 37.5 mg/kg/injection, schedule: Q01DX011 (ip), vehicle: saline, higher = larger tumour
  T/C: 53 % of control
endpoint: mean tumor weight, dose: 39.0 mg/kg/injection, schedule: Q01DX011 (ip), vehicle: saline, higher = larger tumour
  T/C: 49 % of control
endpoint: mean tumor weight, dose: 65.0 mg/kg/injection, schedule: Q01DX011 (ip), vehicle: saline, higher = larger tumour
  T/C: 74 % of control
endpoint: mean tumor weight, dose: 75.0 mg/kg/injection, schedule: Q01DX011 (ip), vehicle: saline, higher = larger tumour
  T/C: 71 % of control
endpoint: mean tumor weight, dose: 108.0 mg/kg/injection, schedule: Q01DX011 (ip), vehicle: saline, higher = larger tumour
  T/C: 60 % of control
endpoint: mean tumor weight, dose: 150.0 mg/kg/injection, schedule: Q01DX011 (ip), vehicle: saline, higher = larger tumour
  T/C: 46 % of control
endpoint: median survival time, dose: 39.0 mg/kg/injection, schedule: Q01DX011 (ip), vehicle: saline, higher = longer survival
  T/C: 115 % of control
endpoint: median survival time, dose: 65.0 mg/kg/injection, schedule: Q01DX011 (ip), vehicle: saline, higher = longer survival
  T/C: 115 % of control
endpoint: median survival time, dose: 75.0 mg/kg/injection, schedule: Q01DX011 (ip), vehicle: saline, higher = longer survival
  T/C: 113 % of control
endpoint: median survival time, dose: 108.0 mg/kg/injection, schedule: Q01DX011 (ip), vehicle: saline, higher = longer survival
  T/C: 103 % of control

## O=C1C=C(N2CC2)c2ccccc2C1=O
endpoint: mean tumor weight (est.), dose: 5.0 mg/kg/injection, schedule: Q01DX011 (ip), vehicle: saline, higher = larger tumour
  T/C: 74 % of control
endpoint: mean tumor weight (est.), dose: 10.0 mg/kg/injection, schedule: Q01DX011 (ip), vehicle: saline, higher = larger tumour
  T/C: 58 % of control
endpoint: median survival time, dose: 5.0 mg/kg/injection, schedule: Q01DX011 (ip), vehicle: saline, higher = longer survival
  T/C: 100 % of control
endpoint: median survival time, dose: 10.0 mg/kg/injection, schedule: Q01DX011 (ip), vehicle: saline, higher = longer survival
  T/C: 100 % of control

## CNc1ccc(O)cc1
endpoint: mean tumor weight (est.), dose: 6.25 mg/kg/injection, schedule: Q01DX011 (ip), vehicle: saline, higher = larger tumour
  T/C: 97 % of control
endpoint: mean tumor weight (est.), dose: 12.5 mg/kg/injection, schedule: Q01DX011 (ip), vehicle: saline, higher = larger tumour
  T/C: 97 % of control
endpoint: mean tumor weight (est.), dose: 25.0 mg/kg/injection, schedule: Q01DX011 (ip), vehicle: saline, higher = larger tumour
  T/C: 89 % of control
endpoint: mean tumor weight (est.), dose: 50.0 mg/kg/injection, schedule: Q01DX011 (ip), vehicle: saline, higher = larger tumour
  T/C: 82 % of control
endpoint: median survival time, dose: 6.25 mg/kg/injection, schedule: Q01DX011 (ip), vehicle: saline, higher = longer survival
  T/C: 101 % of control
endpoint: median survival time, dose: 12.5 mg/kg/injection, schedule: Q01DX011 (ip), vehicle: saline, higher = longer survival
  T/C: 105 % of control
[1]
  T/C: 100 % of control
[2]
  T/C: 101 % of control

## COc1c(C)c2c(c(O)c1C/C=C(\C)CCC(=O)O)C(=O)OC2
[10]
  T/C: 98 % of control
[5]
  T/C: 71 % of control
[6]
  T/C: 57 % of control
[7]
  T/C: 27 % of control
endpoint: median survival time, dose: 25.0 mg/kg/injection, schedule: Q01DX011 (ip), vehicle: saline with Tween-80, higher = longer survival
  T/C: 97 % of control
[8]
  T/C: 106 % of control
[9]
  T/C: 100 % of control

## Cc1c(C(=O)O)nc(/C=C/C(=O)O)[nH]c1=O
endpoint: median survival time, dose: 4.0 mg/kg/injection, schedule: Q01DX009 (ip), vehicle: water, higher = longer survival
  T/C: 105 % of control
endpoint: median survival time, dose: 8.0 mg/kg/injection, schedule: Q01DX009 (ip), vehicle: water, higher = longer survival
  T/C: 108 % of control
endpoint: median survival time, dose: 16.0 mg/kg/injection, schedule: Q01DX009 (ip), vehicle: water, higher = longer survival
  T/C: 108 % of control

## CSC(=S)N/N=C/c1ccccn1
endpoint: mean tumor weight (est.), dose: 12.5 mg/kg/injection, schedule: Q01DX011 (ip), vehicle: saline with Tween-80, higher = larger tumour
  T/C: 67 % of control
[10]
  T/C: 92 % of control
[5]
  T/C: 50 % of control

## O=C1NC(c2cccc3ccccc23)Nc2ccccc21 (stereo unspecified)
endpoint: mean tumor weight, dose: 15.6 mg/kg/injection, schedule: Q01DX011 (ip), vehicle: saline with Tween-80, higher = larger tumour
  T/C: 86 % of control
endpoint: mean tumor weight, dose: 31.2 mg/kg/injection, schedule: Q01DX011 (ip), vehicle: saline with Tween-80, higher = larger tumour
  T/C: 80 % of control
endpoint: mean tumor weight, dose: 62.5 mg/kg/injection, schedule: Q01DX011 (ip), vehicle: saline with Tween-80, higher = larger tumour
  T/C: 90 % of control
endpoint: mean tumor weight, dose: 125.0 mg/kg/injection, schedule: Q01DX011 (ip), vehicle: saline with Tween-80, higher = larger tumour
  T/C: 67 % of control
endpoint: median survival time, dose: 15.6 mg/kg/injection, schedule: Q01DX011 (ip), vehicle: saline, higher = longer survival
  T/C: 102 % of control
endpoint: median survival time, dose: 31.2 mg/kg/injection, schedule: Q01DX011 (ip), vehicle: saline, higher = longer survival
  T/C: 119 % of control
endpoint: median survival time, dose: 62.5 mg/kg/injection, schedule: Q01DX011 (ip), vehicle: saline, higher = longer survival
  T/C: 114 % of control
[11]
  T/C: 114 % of control

## CN(C)C(=S)S
endpoint: mean tumor weight, dose: 125.0 mg/kg/injection, schedule: Q01DX011 (ip), vehicle: saline, higher = larger tumour
  T/C: 58 % of control and 59 % of control
endpoint: mean tumor weight, dose: 250.0 mg/kg/injection, schedule: Q01DX011 (ip), vehicle: saline, higher = larger tumour
  T/C: 57 % of control
[11]
  T/C: 102 % of control

## CN(C)CCCNc1c2ccccc2nc2cccc([N+](=O)[O-])c12
endpoint: median survival time, dose: 0.1 mg/kg/injection, schedule: Q02DX011 (ip), vehicle: saline, higher = longer survival
  T/C: 88 % of control
endpoint: median survival time, dose: 2.0 micrograms/kg/injection, schedule: Q01DX009 (ip), vehicle: saline, higher = longer survival
  T/C: 120 % of control
endpoint: median survival time, dose: 4.0 micrograms/kg/injection, schedule: Q01DX009 (ip), vehicle: saline, higher = longer survival
  T/C: 92 % of control and 104 % of control
endpoint: median survival time, dose: 16.0 micrograms/kg/injection, schedule: Q01DX009 (ip), vehicle: saline, higher = longer survival
  T/C: 109 % of control
endpoint: median survival time, dose: 32.0 micrograms/kg/injection, schedule: Q01DX009 (ip), vehicle: saline, higher = longer survival
  T/C: 100 % of control
endpoint: median survival time, dose: 64.0 micrograms/kg/injection, schedule: Q01DX009 (ip), vehicle: saline, higher = longer survival
  T/C: 88 % of control and 107 % of control
